Assay results reported in PubChem BioAssay (NCI).
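Here, GI50 denotes the concentration required for 50% inhibition of growth. Definition used: TGI = concentration required for complete inhibition of growth.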

What was measured:
Test in all cases: growth of human tumour cells (NCI), 384-well format
[1] = tested on: SN12C renal
[2] = tested on: HCC-2998 colon
[3] = tested on: NCI/ADR-RES ovarian
[4] = tested on: IGROV1 ovarian
[5] = tested on: DU-145 prostate
[6] = tested on: OVCAR-4 ovarian
[7] = tested on: OVCAR-3 ovarian
[8] = tested on: MDA-MB-468 breast
[9] = tested on: KM12 colon
[10] = tested on: MALME-3M melanoma
[11] = tested on: T-47D breast
[12] = tested on: SF-539 CNS
[13] = tested on: HS 578T breast
[14] = tested on: HOP-92 NSCLC
[15] = tested on: NCI-H460 NSCLC
[16] = tested on: HT29 colon
[17] = tested on: NCI-H522 lung
[18] = tested on: UACC-257 melanoma
[19] = tested on: SNB-19 CNS
[20] = tested on: TK-10 renal
[21] = tested on: CCRF-CEM leukemia
[22] = tested on: RPMI-8226 leukemia
[23] = tested on: HL-60(TB) leukemia
[24] = tested on: CAKI-1 renal
[25] = tested on: NCI-H322M lung
[26] = tested on: SW-620 colon
[27] = tested on: SK-MEL-5 melanoma
[28] = tested on: COLO 205 colon
[29] = tested on: M14 melanoma
[30] = tested on: SR leukemia
[31] = tested on: RXF 393 renal
[32] = tested on: ACHN renal
[33] = tested on: HCT-15 colon
[34] = tested on: PC-3 prostate
[35] = tested on: SF-295 CNS
[36] = tested on: OVCAR-8 ovarian
[37] = tested on: 786-0 renal
[38] = tested on: SK-OV-3 ovarian
[39] = tested on: BT-549 breast
[40] = tested on: MOLT-4 leukemia
[41] = tested on: NCI-H226 lung
[42] = tested on: NCI-H23 lung
[43] = tested on: UACC-62 melanoma
[44] = tested on: SK-MEL-28 melanoma
[45] = tested on: OVCAR-5 ovarian
[46] = tested on: K-562 leukemia
[47] = tested on: EKVX NSCLC
[48] = tested on: SNB-75 CNS
[49] = tested on: MDA-MB-231 breast
[50] = tested on: SF-268 CNS
[51] = tested on: MCF7 breast
[52] = tested on: UO-31 renal
[53] = tested on: A498 renal
[54] = tested on: A549 NSCLC
[55] = tested on: LOX IMVI melanoma
[56] = tested on: MDA-MB-435 melanoma

COCc1cc(C(=O)Nc2cc([C@H]3CC[C@@H](OC(=O)NC(C)C)C3)[nH]n2)n(C)n1
GI50 [1]: 4.38 µM | TGI [1]: 23.9 µM | GI50 [2]: 5.15 µM | TGI [2]: 25.9 µM | GI50 [3]: > 100 µM | TGI [3]: > 100 µM | GI50 [4]: 4.47 µM | TGI [4]: > 100 µM | GI50 [5]: 3.14 µM | TGI [5]: > 100 µM | GI50 [6]: 18.3 µM | TGI [6]: 52.7 µM | GI50 [7]: 5.24 µM | TGI [7]: 28.8 µM | GI50 [8]: 13.9 µM | TGI [8]: 27 µM | GI50 [9]: 0.571 µM | TGI [9]: 17.2 µM | GI50 [10]: 12.3 µM | TGI [10]: 26.1 µM | GI50 [11]: 5.58 µM | TGI [11]: > 100 µM | GI50 [12]: 3.97 µM | TGI [12]: 19.6 µM | GI50 [13]: 11.4 µM | TGI [13]: 29.5 µM | GI50 [14]: 14 µM | TGI [14]: > 100 µM | GI50 [15]: 3.07 µM | TGI [15]: 14.3 µM | GI50 [16]: 12.4 µM | TGI [16]: > 100 µM | GI50 [17]: 15.1 µM | TGI [17]: 31.6 µM | GI50 [18]: 6.8 µM | TGI [18]: 25.3 µM | GI50 [19]: 5.67 µM | TGI [19]: > 100 µM | GI50 [20]: 14.8 µM | TGI [20]: > 100 µM | GI50 [21]: 2.81 µM | TGI [21]: 7.24 µM | GI50 [22]: 1.84 µM | TGI [22]: 6.78 µM | GI50 [23]: 1.52 µM | TGI [23]: 2.89 µM | GI50 [24]: 3.99 µM | TGI [24]: > 100 µM | GI50 [25]: 3.8 µM | TGI [25]: 13 µM | GI50 [26]: 2.45 µM | TGI [26]: 65.4 µM | GI50 [27]: 0.762 µM | TGI [27]: 13.9 µM | GI50 [28]: 0.975 µM | TGI [28]: 19 µM | GI50 [29]: 4.82 µM | TGI [29]: 18.8 µM | GI50 [30]: 0.557 µM | TGI [30]: 1.86 µM | GI50 [31]: 5.42 µM | TGI [31]: 23.4 µM | GI50 [32]: 3.45 µM | TGI [32]: > 100 µM | GI50 [33]: 6.45 µM | TGI [33]: 37.4 µM | GI50 [34]: 6.59 µM | TGI [34]: > 100 µM | GI50 [35]: 10.3 µM | TGI [35]: 79.3 µM | GI50 [36]: 4.64 µM | TGI [36]: 36.2 µM | GI50 [37]: 5.05 µM | TGI [37]: 64.2 µM | GI50 [38]: 8.29 µM | TGI [38]: 90.1 µM | GI50 [39]: 3.38 µM | TGI [39]: 20.3 µM | GI50 [40]: 4.36 µM | TGI [40]: 12.5 µM | GI50 [41]: 2.85 µM | TGI [41]: 51.6 µM | GI50 [42]: 2.48 µM | TGI [42]: 10.1 µM | GI50 [43]: 2.98 µM | TGI [43]: 12.8 µM | GI50 [44]: 10.3 µM | TGI [44]: 22.8 µM | GI50 [45]: 3.12 µM | TGI [45]: 9.17 µM | GI50 [46]: 13.8 µM | TGI [46]: 65.2 µM | GI50 [47]: 14.9 µM | TGI [47]: 48.8 µM | GI50 [48]: 8.98 µM | TGI [48]: 22.3 µM | GI50 [49]: 9.08 µM | TGI [49]: > 100 µM | GI50 [50]: 2.37 µM | TGI [50]: 15.4 µM | GI50 [51]: 2.66 µM | TGI [51]: 13.4 µM | GI50 [52]: 31.5 µM | TGI [52]: > 100 µM | GI50 [53]: 1.52 µM | TGI [53]: > 100 µM | GI50 [54]: 3.03 µM | TGI [54]: > 100 µM | GI50 [55]: 3.12 µM | TGI [55]: 18.9 µM | GI50 [56]: 12.5 µM | TGI [56]: 84.8 µM
